Data taken from US20130345268A1, “Methods and Compositions for the Treatment of RAS Associated Disorders” (The Trustees of Dartmouth College, priority 2009, published 2013).
Where two headings read alike, the source gives them in different places.

Tests used:
[1] = test system: T265 (NF1 mutant MPNST/sarcoma cells); assay: In vitro growth of NF1 mutant MPNST cells, alamar blue, dose-response; format: cell-based; conditions: Homo sapiens
Procedure: (§1) The NF1−/− MPNST line T265 used for the screen provides two additional readouts for the chemical approaches to suppress the phenotypes of NFI loss: activated Ras (Mahller et al., 2005) and activated MAPK (FIG. 1). In vitro growth assays of the two cell lines (NF1 positive and NF1 negative) are scaled down to 384 well plates. An Evotec Technologies plate::explorer uHTS system is used. MPNST cell lines T265 and STS26T in logarithmic growth phase are plated in separate 384 well plates at a density of 500 cells per well in Dulbecco's modified Eagle's medium (DMEM; Fisher Scientific; Pittsburgh, Pa.) supplemented with 10% Fetal Bovine Serum (Harlan; Indianapolis, Ind.) containing vehicle (DMSP, “Dimethyl Sulfoxide”) only or one of 13,031 candidate compounds at a concentration of 10 micromolar, a concentration of drug shown not to cause cell death of many human cell lines. The candidate compounds are selected to represent a cross section of compounds covering the diversity space resident in the available library, restricted to drug-like compounds, but evenly and consistently representative across this realm and representative of commercially available compounds. Compounds targeting GPCRs, kinases and other targets of known medical interest are also included. The cells are incubated with the compounds or 5 μg/ml doxorubicin as a positive control for 2 days. Growth is monitored by using the alamar blue method (Alley et al. 1988; Ahmed et al. 1994.) Metabolic activity of cells results in reduction of alamar blue and a large increase in alamar blue fluorescence, which correlates with cell number. Candidate compounds causing interference with fluorescence are eliminated. […] Appropriate control samples and statistical analyses are used.
(§2) Confirmed hits that decreased viability of both cell lines were identified as possible therapeutic agents. A smaller population of hits selectively affected the non-NF1 cell line. These seven confirmed “hits,” or potential therapeutic agents, were tested using the same assay method at 10 concentrations, in triplicate, to give a dose-response and to determine the AC50 (the concentration at which 50% of the maximum activity or inhibition is achieved) for each compound. Using the initial screen, seven compounds are identified showing a significant differential growth inhibition of the mutant NF1 cells relative to wild type NF1 cells.

[2] = test system: STS26T (26T, NF1 wild type MPNST/sarcoma cells); assay: In vitro growth of NF1 wild type MPNST cells, alamar blue, dose-response; format: cell-based, human; conditions: for IC50: Homo sapiens, STS-26T
Procedure: as §1, §2

[3] = test system: U-87 MG GBM (glioblastoma) cells; assay: Growth of glioblastoma cells in vitro, Alamar Blue; format: cell-based; conditions: Homo sapiens, 72 h, U87-MG cells, three days, normalized to DMSO-treated wells, three independent experiments
Procedure: FIG. 4 depicts the effects of two compounds active in NF1−/− MPNST cells on the growth of U-87 MG GBM (glioblastoma) cells in vitro. FIG. 4a depicts the effects of the compound of Formula I(a); FIG. 4b depicts the effects of the compound of Formula IV(c). U87-MG cells were seeded in 96 well plates at a density of 1000 per well in DMEM containing 10% fetal bovine serum. The next day, medium was removed and fresh medium containing 0.1% DMSO or compound was added back. Plates were incubated for three days at 37° C., 5% CO2. Cell growth was assessed with Alamar Blue with values normalized to the DMSO-treated wells. Values are mean of three wells. The AC50 for the compound of Formula Ia was 3.77 micromolar +/−0.7. The AC50 for the compound of Formula IV(c) was 0.97 micromolar +/−0.1. AC50 was calculated using data from three independent experiments.

[4] = test system: cells lacking Ira2 and Erg6; assay: Growth of strains lacking Ira2 and Erg6, optical density at 595 nm; format: cell-based; conditions: Synthetic Complete media, 32C, 24 h, OD 595 nm
Procedure: FIG. 3. […] Strains were grown overnight in Synthetic Complete media. 75 μL of culture at a starting optical density of 0.1 were added to a 96 well plate containing 75 μL of Synthetic Complete media with twice the desired final concentration of compound in 1% DMSO. Plates were incubated in a humidified 32C chamber, and scanned on an optical density plate reader at 595 nm after 24 h. The bars represent the mean of three wells, and the error bars represent ±2× standard error.

[5] = 48 h, Table 3, T265 cells, alamar blue, 2 days, 10 concentrations in triplicate, read-out: T265 IC50
[6] = 48 h, Table 3, STS26T cells, alamar blue, 2 days, 10 concentrations in triplicate, read-out: 26T IC50
[7] = Table 4, NF1 mutant sarcoma cells (T265), read-out: IC50, T265
[8] = Table 4, NF1 wild type (26T) sarcoma cells, read-out: IC50, 26T

Cc1ccc(Cn2c(=N)n(CC(=O)c3ccc(Br)cc3)c3ccccc32)cc1 [VII]
IC50 [1, 5]: 78 nM | IC50 [2, 6]: 56 nM

Cc1ccc(Cn2c(=N)n(CC(O)c3ccc(Br)cc3)c3ccccc32)cc1 (centres unmarked) [VIII]
IC50 [1, 5]: 1100 nM | IC50 [1, 7]: 1100 nM | IC50 [2, 6]: 19500 nM | IC50 [2, 8]: 19500 nM

CCc1cc(-c2ccccc2OS(=O)(=O)c2ccc3ccccc3c2)nn1CCNCCc1ccc(OC)c(OC)c1 [V]
IC50 [1, 5]: 2800 nM | IC50 [1, 7]: 2900 nM | IC50 [2, 6]: 22800 nM | IC50 [2, 8]: 22900 nM

CCCCc1ccc2nc(-c3ccccc3)cc(C(=O)NC(C(=O)NC(C)CCCN(CC)CC)C(C)C)c2c1 (centres unmarked) [III]
IC50 [1, 5]: 3000 nM | 26T IC50 ([2]; Table 3, STS26T cells, alamar blue, 2 days, 10 concentrations in triplicate): No Effect

CCN(CC)C(=S)SCC(=O)n1c(C)cc(-c2ccccc2F)c1C [XI]
IC50 [1, 5]: 1700 nM | IC50 [2, 6]: 1000 nM

N=C(N)SCc1cn(-c2ccccc2)nc1-c1cccc(Br)c1 [Formula Ia]
IC50 [1, 5]: 1300 nM | IC50 [1, 7]: 1300 nM | IC50 [2, 6]: 50300 nM | IC50 [2, 8]: 50300 nM | AC50 [3]: 3770 nM | Inhibition of growth [4]: Inhibition of growth

Cc1ccc(NC(=O)C2=C(c3ccccc3)S(=O)(=O)CCS2(=O)=O)cc1 [Formula IV(c)]
AC50 [3]: 970 nM

CCc1cc(-c2ccccc2OS(=O)(=O)c2ccc3ccccc3c2)nn1CCNCCOc1ccccc1 [VI]
IC50 [1, 5]: 4500 nM | IC50 [2, 6]: 1900 nM
